In US20200352912A1, “ANTIMICROBIAL COMPOSITIONS AND METHODS OF USING THE SAME” (The Board Of Supervisors Of Louisiana State University And …, priority 2018, published 2020):

Assays:
mouse primary myoblasts = details: cited from earlier work
S. aureus NRS383 = test: growth inhibition kinetics; type: cell-based, Staphylococcus aureus
Experimental: Growth of S. aureus NRS383 was monitored for up to 24 h in medium alone or supplemented with DMSO or 50 μg/ml L-161, 982. After 6 h of coincubation, fresh L-161, 982 was added to growth medium (*). Data shown are representative of three independent experiments.
We next investigated the kinetics of growth inhibition kinetics by L-161, 982 against S. aureus and drug stability. The minimum inhibitory concentration (MIC) of L-161, 982 against planktonic S. aureus was 50 μg/ml while the […] was 100 μg/ml. […] To address whether the loss of inhibition was due to drug degradation over time (half-life), or to adaptation of S. aureus cells to L-161, 982, fresh L-161, 982 (50 μg/ml) was added during the co-incubation.

[1] = administration of L-161,982 alone to control animals; type: in vivo, mice
Text: Furthermore, L-161, 982 protected mice against the synergistic lethality induced by co-infection with C. albicans and S. aureus. […] The goal of these studies was to further investigate the antimicrobial mechanism of action (MOA) of L-161, 982, testing mechanisms associated with major classes of antimicrobials.

K. pneumoniae = test: spectrum of activity, bacterial growth; type: cell-based; details: 50 μg/ml, 6 h
Experimental: (§1) Bacterial growth was monitored for 6 h in medium alone or supplemented with 50 μg/ml of L-161, 982. Data shown is representative of three independent experiments.
(§2) Strains and growth conditions. The methicillin-resistant S. aureus strain NRS383 used in all experiments was obtained from the Network on Antimicrobial Resistance in S. aureus (NARSA) data bank. NRS383 is positive for the toxic shock syndrome toxin (tst) and 6-toxin genes. SJ-MRSA 6 and SJ-SA5 are methicillin-resistant (MRSA) and methicillin-sensitive (MSSA) clinical S. aureus strains respectively isolated from a patient's catheter. Other bacterial species used in this study include Escherichia coli (ATCC 25922, clinical isolate), S. epidermidis (ATCC 12228), Klebsiella pneumonia (ATCC 43816), Enterococcus faecalis (ATCC 51299, clinical isolate), and Streptococcus mutans (UA159, 12). S. mutans strain was maintained in brain heart infusion (BHI) broth while the other bacterial species were maintained in Luria-Bertani broth. Frozen stocks were obtained at −80° C. and streaked onto agar plates at 37° C. prior to use. A single colony was transferred to 10 ml of culture broth and shaken at 37° C. overnight. On the following day, the overnight culture was diluted 1:100 in fresh growth medium and shaken at 37° C. for 3 h to obtain cells in mid-log growth phase. S. mutans cultures were grown without agitation in the presence of 5% CO2.
(§3) The spectrum of activity of L-161, 982 was investigated by testing several Gram-positive and Gram-negative bacteria.

S. epidermidis = test: spectrum of activity, bacterial growth; type: cell-based; details: 50 μg/ml, 6 h
Experimental: as §1, §2, §3

E. faecium = test: spectrum of activity, bacterial growth; type: cell-based; details: 50 μg/ml, 6 h
Experimental: as §1, §2, §3

Streptococcus mutans = test: spectrum of activity, bacterial growth; type: cell-based; details: 50 μg/ml, 6 h
Experimental: as §1, §2, §3

S. aureus = test: cell membrane integrity by viability (Live/Dead) staining; type: cell-based, Staphylococcus aureus; details: 6 h incubation
Text: To determine the mechanism of action of L-161, 982 against growth of Gram-positive bacteria, we first looked at its effect on cell membrane integrity using viability staining. […] A previous study had reported that the inhibitory effect of L-161, 982 on the proliferation of skeletal muscle myoblasts was due to its ability to induce production of high levels of intracellular reactive oxygen species (ROS) that could be reversed by co-treatment with the antioxidants, N-acetyl cysteine or sodium ascorbate (25).
Although the prostanoid pathway is not conserved in prokaryotes, we questioned whether L-161, 982 inhibited S. aureus growth by increasing intracellular ROS production. […] Future studies will examine other possible mechanisms of action.

[2] = test system: S. aureus mono-species biofilm; test: biofilm formation on polystyrene (XTT, CFU); type: cell-based, Staphylococcus aureus
Experimental: (§4) The effect of L-161,982 on biofilm formation was tested. Mono- and dual-species C. albicans and/or S. aureus biofilms were grown on 96-well plates for 24 h with the indicated concentration of L-161, 982. After incubation, metabolic activity of biofilms was quantified by the XTT assay (A) and then biofilms were disrupted to determine live colony forming units (CFU) (B). The results are cumulative of three independent experiments with duplicate samples. Statistics was performed using One-way ANOVA with the Tukey post-hoc test for the XTT assay. The Mann-Whitney U test was used to analyze CFU data. Significance is indicated as follows: ns—not significant, *P<0.05; *** P<0.001. Error bars represent standard deviation.
Following growth as described above, microbes were washed in phosphate-buffered saline (PBS) by centrifugation, counted on a hemocytometer, and adjusted to 2×10^7 CFU/ml in RPMI buffered with MOPS (165 mM). For monomicrobial biofilms, 50 μl of adjusted C. albicans or S. aureus culture was added to each well of a sterile 96-well cell culture polystyrene microtiter plate (1×10^6 CFU per well); to this, 50 μl of sterile RPMI+MOPS was added. For polymicrobial biofilms, 50 μl of each organism was added per well (1×10^6 CFU of each organism per well). Plates were incubated for 24 h at 37° C. to induce biofilm formation. Following confirmation of mature biofilm growth by macro- and microscopic examination, plates were washed once with 200 μl sterile saline and then 200 μl RPMI+MOPS containing L-161, 982 at various concentrations (6.25-200 μg/ml) added to each well. L-161, 982-free RPMI+MOPS was added to wells with and without microbes to serve as positive and negative controls, respectively. […]
(§5) The XTT reduction assay was used to determine the metabolic activity of biofilms following treatment with L-161, 982 (17). Briefly, wells were washed once in PBS, and plates incubated at 37° C. for 2 h with 200 μl XTT working reagent (0.5 mg/ml XTT and 1 μM Menadione) and the resulting absorbance measured at 490 nm on a microplate spectrophotometer. […]

[3] = test system: dual-species biofilm with C. albicans; test: biofilm formation on polystyrene (XTT, CFU); type: cell-based, C. albicans and S. aureus
Experimental: as §4
Following growth as described above, microbes were washed in phosphate-buffered saline (PBS) by centrifugation, counted on a hemocytometer, and adjusted to 2×10^7 CFU/ml in RPMI buffered with MOPS (165 mM). […]
as §5

CCCCc1nn(-c2ccccc2C(F)(F)F)c(=O)n1Cc1ccc(-c2ccccc2S(=O)(=O)NC(=O)c2sccc2C)cc1 [L-161, 982, N-[[4′-[[3-Butyl-1,5-dihydro-5-oxo-1-[2-(trifluoromethyl)phenyl]-4H-1,2,4-triazol-4-yl]methyl][1,1′-biphenyl]-2-yl]sulfonyl]-3-methyl-2-thiophenecarboxamide]
proliferation of mouse primary myoblasts (mouse primary myoblasts): inhibit proliferation
inhibition when fresh L-161, 982 is added during co-incubation (S. aureus NRS383; 50 μg/ml, fresh 50 μg/ml after 6 h): maintained inhibition over a 24 h period
duration of inhibitory effect on S. aureus (S. aureus NRS383; at the MIC of 50 μg/ml): ≤ 8 h
morbidity or mortality in control animals [1]: no morbidity or mortality
overt signs of toxicity [1]: did not cause any overt signs of toxicity
growth inhibitory activity (K. pneumoniae): No inhibitory effects
growth inhibitory activity (S. epidermidis): restricted to Gram-positive bacteria that included S. epidermidis and Streptococcus mutans
growth inhibitory activity (E. faecium): No inhibitory effects
growth inhibitory activity (Streptococcus mutans): restricted to Gram-positive bacteria that included S. epidermidis and Streptococcus mutans
cell membrane damage (S. aureus): no evidence of cell membrane damaged
CFUs of S. aureus, biofilm formation ([2]; 6.25 to 25 μg/ml): significantly reduced
metabolic activity (XTT) during biofilm formation ([2]; all concentrations tested, 24 h): significantly inhibited
CFUs of S. aureus, biofilm formation ([2]; concentrations >50 μg/ml): no viable cells were recovered
inhibitory effect in dual-species biofilm [3]: no inhibitory effect
